# Measured values reported in patent US20240358721A1, “GASDERMIN-D INHIBITORS AND USES THEREOF FOR TREATING PULMONARY VASO-OCCLUSION” (UNIVERSITY OF PITTSBURGH-OF THE COMMONWEALTH SYSTEM OF …, priority 2021, published 2024).
# “Also recorded” adds a separate entry of the source. Where a SMILES comes first, the peptide text is derived from it. The star is where a group is joined. Cbz = O=C(OCc1ccccc1)*; CH2F = FC*
# Key:
# Type in all cases: in vivo, mouse
# SCD mice = test: qFILM assessment of pulmonary vaso-occlusion in SCD mice IV administered oxy-Hb; settings: LDC7559 10 mg/kg, Z-VAD-FMK 0.004 μmol/kg; for Number of PVOs per Field of View (#PVOs/FOV) / number of large PVOs (with area>1000 μm^2) per FOV: IV 10 μmole/kg oxy-Hb with inhibitor vs oxy-Hb alone; for Number of PVOs per Field of View (#PVOs/FOV) / number of large PVOs (with area>1000 μm^2) per FOV / blood flow in the lung (rapidly transiting erythrocytes) / lung vaso-occlusion in representative qFILM images: NSA 20 mg/kg; for blood flow in the lung (rapidly transiting erythrocytes) / lung vaso-occlusion in representative qFILM images / large neutrophil-platelet aggregates occluding the arteriolar bottle-necks in the lung: IV 10 μmole/kg oxy-Hb with inhibitor; for large neutrophil-platelet aggregates occluding the arteriolar bottle-necks in the lung: Necrosulfonamide 20 mg/kg
# From the text: (§1) Quantitative fluorescence intravital lung microscopy (qFILM) was used to assess the absence or presence of platelet-neutrophil aggregate mediated pulmonary vaso-occlusion. Pulmonary microcirculation (pseudo-colored purple), neutrophils (red) and platelets (pseudo-colored green) were labeled in vivo by IV administration of FITC dextran, AF546-anti-Ly6G Ab and V450-anti-CD49b Ab, respectively. […] White arrows denote the direction of blood flow within the pulmonary arterioles. Alveoli are marked with asterisks. Scale bars 20 μm. The diameter of pulmonary arteriole in B-E is ˜22 μm, 32 μm, 31.5 μm, and 31 μm, respectively. […] Refer Online Data Supplement for details. […] The data for mice with SCD IV administered 10 oxy-Hb (n=5 mice; 75 FOVs) are included as black bars in FIGS. 1N and 1O for relative comparison. qFILM FOV size ˜65 536 μm^2. Data represent mean ±SE and are compared using Student t test. *P<0.05 (FIG. 1P) Schematic showing the main findings of the study. The sterile inflammatory milieu (DAMPs, IFN-I signaling, and ROS) in SCD promotes caspase-4 (humans) or caspase-11 (mouse)-dependent cleavage of neutrophil GSDMD into the active form GSDMD-NT, leading to the shedding of NETs in the liver microcirculation. Once shed, these NETs are carried by the blood as cNETs to the lung, where they promote neutrophil-platelet aggregation in the pulmonary arterioles, leading to PVO and lung injury (acute chest syndrome).
# Intravital lung microscopy (experimental scheme shown in FIG. 1A) was conducted in live mice to assess whether preventing liver-to-lung embolization of cNETs by inhibiting or deleting GSDMD-signaling leads to amelioration of pulmonary vaso-occlusion. Although large neutrophil-platelet aggregates (marked with dotted ellipses) were seen occluding the arteriolar bottle-necks, leading to impaired blood flow in the lung of SCD mice IV administered 10 μmole/kg oxy-Hb (FIG. 1B), such aggregates were rare in the lung of SCD mice IV administered 10 μmole/kg oxy-Hb with 0.004 μmol/kg pan-caspase inhibitor Z-VAD-FMK (FIG. 1C) or 10 mg/kg GSDMD-NT inhibitor LDC7559 (FIG. 1D) or 20 mg/kg GSDMD-NT inhibitor Necrosulfonamide (FIG. 1E). […] The twofold higher dose of 20 μmole/kg IV oxy-Hb also led to the development of lung vaso-occlusion in WT but not Gsdmd^−/− mice (FIG. 2). […] P-selectin deficiency led to an approximately 50% reduction in pulmonary vaso-occlusion in SCD-Selp^−/− mice administered 10 μmole/kg IV oxy-Hb (FIG. 3), however, IV administration of oxy-Hb with GSDMD-NT inhibitor (LDC7559) led to further threefold (significant) reduction in pulmonary vaso-occlusions per FOV (FIGS. 1N and 4A, and FIG. 5) and absence of large pulmonary vaso-occlusions (area>1000 μm^2) per FOV (FIG. 10) in SCD-Selp^−/− mice.
# Quantitative fluorescence intravital lung microscopy (qFILM) has been used widely for in vivo assessment of pulmonary vasoocclusion in mice with SCD [Bennewitz M F et al., (2017); Vats R, Brzoska T, Bennewitz M F, et al. (2020); Vats R, Tutuncuoglu E, Pradhan-Sundd T, Tejero J, Shaw G D, Sundd P. (2020); Bennewitz M F, Tutuncuoglu E, Gudapati S, et al. (2020)] In the current study, qFILM was used to assess pulmonary vaso-occlusion and detect NETs in the intact lung microcirculation of live mice following IV challenge with saline, oxy-hemoglobin (oxy-Hb), hemin, or lipo-polysaccharide with or without pretreatment with N-terminus active domain (GSDMD-NT) inhibitors LDC7559 [Sollberger G, Choidas A, Burn G L, et al. (2018)], NSA [Rathkey J K, Zhao J, Liu Z, et al. (2018)], Disulfiram [Hu J J, Liu X, Xia S, et al. (2020)], or the pan-caspase inhibitor Z-VAD-FMK [Sollberger G, Choidas A, Burn G L, et al. (2018)], haptoglobin [Belcher J D, Chen C, Nguyen J, et al. (2014)], or TLR4-inhibitor (TAK242) [Belcher J D, Chen C, Nguyen J, et al. (2014)]. qFILM was conducted with a Nikon multiphoton excitation fluorescence microscope and an APO LWD 25×water immersion objective with 1.1 NA. […]
# SCD-Selp−/− mice [1] = test: qFILM assessment of P-selectin-independent pulmonary vaso-occlusion in SCD-Selp−/− mice IV administered oxy-Hb; settings: IV 10 μmole/kg oxy-Hb with 10 mg/kg inhibitor vs oxy-Hb alone
# From the text: as §1
# SCD-Selp^−/− mice were IV administered 10 μmole/kg oxy-Hb (10 oxy-Hb) without or with 10 mg/kg GSDMD inhibitor (Disulfiram). Quantitative fluorescence intravital lung microscopy (qFILM) was used to assess the absence or presence of pulmonary vasoocclusion using the same experimental scheme described in FIG. 1A. Pulmonary vasoocclusions (PVOs) were compared between treatment groups using following two parameters: Number of PVOs per Field of View (#PVOs/FOV) and number of large PVOs (with area>1000 μm^2) per FOV. […] The data for SCD mice IV administered 10 oxy-Hb (n=5 mice; 75 FOVs) is included as black bars in FIGS. 4A and 4B for relative comparison. FOV size˜65,536 μm^2. […]
# (§2) (FIG. 5A) Experimental scheme: SCD or SCD-Selp^−/− mice were IV administered 10 μmole/kg oxy-Hb (10 oxy-Hb) without or with 10 mg/kg GSDMD inhibitors LDC75591 or Disulfiram. In FIGS. 5C-5D, venous blood was processed to generate PPP and cNETs detected in PPP using Imaging Flow Cytometry. Imaging Flow Cytometry data was quantified to estimate concentration of cNETs (#cNETs/μl of plasma). In FIGS. 5B, and 5E-5F, quantitative fluorescence intravital lung microscopy (qFILM) was used to detect arrival of circulating NETs (cNETs) within the lung microcirculation. Number of cNETs entering per FOV over a 1-minute duration (#cNETs/FOV/min) were quantified. […]
# SCD-Selp−/− mice [2] = test: qFILM detection of circulating NETs arriving in the lung microcirculation, SCD-Selp−/− mice; settings: IV 10 μmole/kg oxy-Hb with 10 mg/kg inhibitor vs oxy-Hb alone, significant
# Procedure: as §2, with “quantified. In FIGS. 5G-5J, qFILM was used to assess the absence or presence of pulmonary vaso-occlusion using the experimental strategy described in FIG. 1A. Pulmonary vaso-occlusions (PVOs) were compared between treatment groups using following two parameters: Number of PVOs per Field of View (#PVOs/FOV) and number of large PVOs (with area>1000 μm^2) per FOV.” for “quantified.”
# Quantitative fluorescence intravital lung microscopy (qFILM) has been used widely for in vivo assessment of pulmonary vasoocclusion in mice with SCD [Bennewitz M F et al., (2017); Vats R, Brzoska T, Bennewitz M F, et al. (2020); Vats R, Tutuncuoglu E, Pradhan-Sundd T, Tejero J, Shaw G D, Sundd P. (2020); Bennewitz M F, Tutuncuoglu E, Gudapati S, et al. (2020)] […]
Structure (SMILES),Number of PVOs per Field of View (#PVOs/FOV) (SCD mice),number of large PVOs (with area>1000 μm^2) per FOV (SCD mice),Number of PVOs per Field of View (#PVOs/FOV) (SCD mice; listed as NSA),number of large PVOs (with area>1000 μm^2) per FOV (SCD mice; listed as NSA),blood flow in the lung (rapidly transiting erythrocytes) (SCD mice),lung vaso-occlusion in representative qFILM images (SCD mice),lung vaso-occlusion in representative qFILM images (SCD mice; listed as NSA),large neutrophil-platelet aggregates occluding the arteriolar bottle-necks in the lung (SCD mice),number of large PVOs (with area>1000 μm^2) per FOV (SCD-Selp−/− mice [1]),Number of PVOs per Field of View (#PVOs/FOV) (SCD-Selp−/− mice [1]; 10 mg/kg),"#cNETs/FOV/min in the lung, less than 10 oxy-Hb alone (SCD-Selp−/− mice [2]) [folds]"
"COc1nccnc1NS(=O)(=O)c1ccc(NC(=O)/C=C/c2ccc([N+](=O)[O-])s2)cc1 [Necrosulfonamide, necrosulfonamide]",significantly reduced,significantly reduced,significantly less,significantly less,significantly improved,lack of pulmonary vaso-occlusion,absence of lung vaso-occlusion,rare,,,
COC(=O)C[C@H](NC(=O)[C@H](C)NC(=O)[C@@H](NC(=O)OCc1ccccc1)C(C)C)C(=O)CF [Z-VAD-FMK] (Cbz-Val-Ala-Asp(OMe)-CH2F),significantly less; also recorded: significantly reduced,significantly less; also recorded: significantly reduced,,,significantly improved,absence of lung vaso-occlusion; also recorded: lack of pulmonary vaso-occlusion,,rare,,,
"CCN(CC)C(=S)SSC(=S)N(CC)CC [Disulfiram, disulfiram]",,,,,,,,,absent,significantly reduced,4
